What was measured:
[1] = molecular target: T1, recombinant human Lp-PLA2 (Homo sapiens, UniProt Q13093); test: Recombinant human Lp-PLA2 assay (rhLp-PLA2, PED6 assay); format: biochemical; settings: recombinant human Lp-PLA2, PED6 substrate; read-out: rhLp-PLA2 (PED6 assay) (pIC50) (converted)
T1 sequence (Q13093 22-441): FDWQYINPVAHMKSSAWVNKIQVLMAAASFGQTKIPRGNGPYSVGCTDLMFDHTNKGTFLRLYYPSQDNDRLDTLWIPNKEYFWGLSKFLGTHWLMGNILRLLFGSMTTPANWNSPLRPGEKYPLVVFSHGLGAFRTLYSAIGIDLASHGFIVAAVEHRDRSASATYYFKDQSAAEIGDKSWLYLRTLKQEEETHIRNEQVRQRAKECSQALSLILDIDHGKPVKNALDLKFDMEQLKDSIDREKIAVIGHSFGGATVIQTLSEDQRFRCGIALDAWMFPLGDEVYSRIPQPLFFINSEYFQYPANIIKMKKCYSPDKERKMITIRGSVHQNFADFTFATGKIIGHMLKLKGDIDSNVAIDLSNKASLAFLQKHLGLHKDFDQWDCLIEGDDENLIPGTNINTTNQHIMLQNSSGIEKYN
Source text: (1) Recombinant Human Lp-PLA2 Assay (rhLp-PLA2) (Also Referred to as “PED6” Assay)
N-((6-(2,4-dinitrophenyl)amino)-hexanoyl)-2-(4,4-difluoro-5,7-dimethyl-4-bora-3a,4a-diaza-s-indacene-3-pentanoyl)-1-hexadecanoyl-sn-glycero-3-phosphoethanolamine, triethylammonium salt (PED6) is a commercially available fluorescently-labeled phospholipid, which is commercially available from Invitrogene and Molecular Probes. There is a quenching […] and a Bodipy fluorescein (FL) group in the sn2 position. Upon cleavage with Lp-PLA2, the Bodipy FL group is liberated and then may result in an increase in fluorescence. Inhibitors of Lp-PLA2 therefore prevent this cleavage and no fluorescent increase is observed.
The PED6 assay was run as an unquenched 10 μL assay. The source plate containing the compounds to be tested was prepared by making 1:3 (by volume) serial dilution of the compounds within DMSO on 384-well microplate. Then, 0.01 μL of the compounds on compound source plate were transferred into 384 well Greiner 784076 (black) plates using ECHO liquid dispenser. 5 μL of recombinant human Lp-PLA2 enzyme (4 nM (or 110 pM) rhLp-PLA2 in assay buffer of 50 mM HEPES, pH 7.4, 150 mM NaCl, 1 mM CHAPS) was added to each well of the plate. Plates were centrifuged for 10 sec at 500 rpm. After 30 minutes preincubation, 5 μL of substrate (4 μM (or 5 μM) PED6 [from 5 mM DMSO stock] in assay buffer of 50 mM HEPES, pH 7.4, 150 mM NaCl, 1 mM CHAPS) was added to 384 well Greiner 784076 (black) plates. Plates were centrifuged for 10 sec at 500 rpm. The plate was covered to protect it from light and incubated for 20 min at room temperature. The plates were read for fluorescence intensity at ex: 480/em: 540 using ViewLux microplate imager for Envision spectrofluroimeters. PIC50 data, curve and QC analysis was conducted by using XL fit module in Excel.

Lp-PLA2 in human plasma = molecular target: T2, Lp-PLA2 in human plasma (Homo sapiens, UniProt Q13093); test: Lp-PLA2 human plasma assay (Thio-PAF assay); format: biochemical; settings: pooled human plasma; read-out: pIC50 in the thio-PAF assay (converted)
T2 construct: from tissue; host or cells: pooled human plasma
T2 sequence (Q13093 22-441): T1 sequence (Q13093 22-441)
Source text: (3) Lipoprotein-Associated Phospholipase A2 (Lp-PLA2) Human Plasma Assay (Also Referred to as “Thio-PAF Assay”)
The human plasma assay utilizes a thioester analog of PAF (phosphatidylcholine), where hydrolysis yields to the formation of a phospholipid containing a free thiol group. The amount of thiol is quantitated continuously by reacting with CPM (7-diethylamino-3-(4′-maleimidylphenyl)-4-methylcoumarin), a maleimide which increases in fluoresence after Michael addition of thiols. This assay may detect the activity of Lp-PLA2 in human plasma, as determined by specific inhibition by Lp-PLA2 inhibitors.
The thio-PAF assay was run as a quenched 15 μL assay. Compounds source plate was prepared by making 1:3 (by volume) serial dilution of the compounds into pure DMSO on 384-well microplate. 0.01 μL of compounds on compound source plate were transferred to 384 well Greiner 784076 (black) low-volume plates by ECHO liquid dispenser. 8 μL pooled human plasma, which was previously aliquoted and frozen, was added. Plates were centrifuged for 10 sec at 500 rpm. After 30 minutes preincubation, 2 μL of substrate solution comprising 2.5 mM 2-thio-PAF [from ethanol stock], 32 μM CPM [from a DMSO stock] and 3.2 mM NEM (N-ethylmaleimide) [made fresh daily in DMSO] in assay buffer of 50 mM HEPES, pH 7.4, 150 mM NaCl, 1 mM CHAPS was added to 384 well Greiner 784076 (black) low-volume plates by BRAVO liquid handling station. After 2 mins, reaction was quenched with 5 μL of 5% aqueous trifluoroacetic acid (TFA). Plates were covered to protect from light and incubated for 40 min at room temperature. Plates were read at ex: 380/em: 485 using Envision microplate reader. PIC50 data, curve and QC analysis were conducted by using XLFit module in Excel.

Row | SMILES | IC50 [1] | IC50 (Lp-PLA2 in human plasma)
1 | O=c1nc(OCc2ccc(F)c(F)c2)cc2n1CCCN2Cc1ccc(Cl)cc1 [Example E2, 1-(4-chlorobenzyl)-8-((3,4-difluorobenzyl)oxy)-3,4-dihydro-1H-pyrimido[1,6-a]pyrimidin-6(2H)-one] | 0.631 nM | –
2 | COc1cccc(CN2CCCn3c2cc(OCc2ccc(F)c(F)c2)nc3=O)c1 [Example E6, 8-((3,4-difluorobenzyl)oxy)-1-(3-methoxybenzyl)-3,4-dihydro-1H-pyrimido[1,6-a]pyrimidin-6(2H)-one] | 1.58 nM | ≤ 100 nM
3 | O=C(CN1CCCn2c1cc(OCc1cc(F)c(F)c(F)c1)nc2=O)N1CCCC1 [Example E14, 1-(2-oxo-2-(pyrrolidin-1-yl)ethyl)-8-((3,4,5-trifluorobenzyl)oxy)-3,4-dihydro-1H-pyrimido[1,6-a]pyrimidin-6(2H)-one] | – | ≤ 100 nM
4 | O=c1nc(OCc2ccc(F)c(F)c2)cc2n1CCCN2Cc1ccccc1 [Example E1, 1-benzyl-8-((3,4-difluorobenzyl)oxy)-3,4-dihydro-1H-pyrimido[1,6-a]pyrimidin-6(2H)-one] | – | ≤ 100 nM
5 | O=C(CN1CCCn2c1cc(OCc1cc(F)c(F)c(F)c1)nc2=O)N1CCOCC1 [Example E16, 1-(2-morpholino-2-oxoethyl)-8-((3,4,5-trifluorobenzyl)oxy)-3,4-dihydro-1H-pyrimido[1,6-a]pyrimidin-6(2H)-one] | 0.501 nM | ≤ 100 nM
6 | O=C(CN1CCCn2c1cc(OCc1ccc(F)c(F)c1)nc2=O)N1CCC(F)(F)CC1 [Example E20, 8-((3,4-difluorobenzyl)oxy)-1-(2-(4,4-difluoropiperidin-1-yl)-2-oxoethyl)-3,4-dihydro-1H-pyrimido[1,6-a]pyrimidin-6(2H)-one] | 0.2 nM | ≤ 100 nM
7 | O=c1nc(OCc2ccc(Oc3cccc(C(F)(F)F)c3)c(F)c2)cc2n1CCCN2C1CC1 [Example E9, 1-cyclopropyl-8-((3-fluoro-4-(3-(trifluoromethyl)phenoxy)benzyl)oxy)-3,4-dihydro-1H-pyrimido[1,6-a]pyrimidin-6(2H)-one] | – | ≤ 100 nM
8 | COc1ccc(CN2CCCn3c2cc(OCc2ccc(F)c(F)c2)nc3=O)cc1 [Example E4, 8-((3,4-difluorobenzyl)oxy)-1-(4-methoxybenzyl)-3,4-dihydro-1H-pyrimido[1,6-a]pyrimidin-6(2H)-one] | 1 nM | ≤ 100 nM
9 | CN1CCN(C(=O)CN2CCCn3c2cc(OCc2ccc(F)c(F)c2)nc3=O)CC1 [Example E19, 8-((3,4-difluorobenzyl)oxy)-1-(2-(4-methylpiperazin-1-yl)-2-oxoethyl)-3,4-dihydro-1H-pyrimido[1,6-a]pyrimidin-6(2H)-one] | 0.316 nM | ≤ 100 nM
10 | O=C(CN1CCCn2c1cc(OCc1ccc(F)c(F)c1)nc2=O)N1CCCC1 [Example E18, 8-((3,4-difluorobenzyl)oxy)-1-(2-oxo-2-(pyrrolidin-1-yl)ethyl)-3,4-dihydro-1H-pyrimido[1,6-a]pyrimidin-6(2H)-one] | – | ≤ 100 nM
11 | N#Cc1cc(COc2cc3n(c(=O)n2)CCCN3C2CC2)ccc1Oc1ccc(Cl)c(C(F)(F)F)c1 [Example E11, 2-(4-chloro-3-(trifluoromethyl)phenoxy)-5-(((1-cyclopropyl-6-oxo-2,3,4,6-tetrahydro-1H-pyrimido[1,6-a]pyrimidin-8-yl)oxy)methyl)benzonitrile] | 0.794 nM | ≤ 100 nM
12 | CCCNC(=O)CN1CCCn2c1cc(OCc1ccc(F)c(F)c1)nc2=O [Example E13, 2-(8-((3,4-difluorobenzyl)oxy)-6-oxo-2,3,4,6-tetrahydro-1H-pyrimido[1,6-a]pyrimidin-1-yl)-N-propylacetamide] | 3.16 nM | ≤ 100 nM
13 | CNC(=O)CN1CCCn2c1cc(OCc1ccc(F)c(F)c1)nc2=O [Example E17] | – | ≤ 100 nM
14 | O=c1nc(OCc2ccc(F)c(F)c2)cc2n1CCCN2Cc1ccc(F)cc1 [Example E3, 8-((3,4-difluorobenzyl)oxy)-1-(4-fluorobenzyl)-3,4-dihydro-1H-pyrimido[1,6-a]pyrimidin-6(2H)-one] | – | ≤ 100 nM
15 | O=C(CN1CCCn2c1cc(OCc1ccc(F)c(F)c1)nc2=O)N1CCCCC1 [Example E21, 8-((3,4-difluorobenzyl)oxy)-1-(2-oxo-2-(piperidin-1-yl)ethyl)-3,4-dihydro-H-pyrimido[1,6-a]pyrimidin-6(2H)-one] | – | ≤ 100 nM
16 | CCCNC(=O)CN1CCCn2c1cc(OCc1cc(F)c(F)c(F)c1)nc2=O [Example E24, 2-(6-oxo-8-((3,4,5-trifluorobenzyl)oxy)-2,3,4,6-tetrahydro-1H-pyrimido[1,6-a]pyrimidin-1-yl)-N-propylacetamide] | – | ≤ 100 nM
17 | O=c1nc(OCc2ccc(Oc3ccc(Cl)c(C(F)(F)F)c3)c(F)c2)cc2n1CCCN2C1CC1 [Example E8, 8-((4-(4-chloro-3-(trifluoromethyl)phenoxy)-3-fluorobenzyl)oxy)-1-cyclopropyl-3,4-dihydro-1H-pyrimido[1,6-a]pyrimidin-6(2H)-one] | 0.501 nM | ≤ 100 nM
18 | O=C(CN1CCCn2c1cc(OCc1ccc(F)c(F)c1)nc2=O)N1CCOCC1 [Example E22, 8-((3,4-difluorobenzyl)oxy)-1-(2-morpholino-2-oxoethyl)-3,4-dihydro-H-pyrimido[1,6-a]pyrimidin-6(2H)-one] | 0.794 nM | ≤ 100 nM
19 | O=C(CN1CCCn2c1cc(OCc1ccc(F)c(F)c1)nc2=O)N1CCC(F)CC1 [Example E23, 8-((3,4-difluorobenzyl)oxy)-1-(2-(4-fluoropiperidin-1-yl)-2-oxoethyl)-3,4-dihydro-1H-pyrimido[1,6-a]pyrimidin-6(2H)-one] | 0.794 nM | ≤ 100 nM
